A short description of series [1]: Metabolic (microsomal) stability assay, human liver microsomes (HLM). Format: in vitro ADME. As to conditions: predicted clearance as percent of liver blood flow, 1 μM. The essentials: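 LC-MS/MS tracked parent disappearance at 0, 5, 15, 30 and 60 min in NADPH-initiated incubations with 1 mg/mL human microsomal protein and 1 μM compound at 37°C, pH 7.5. First-order fits gave intrinsic clearance, which was scaled up and reported as % QH. NADPH-free controls were also run.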

Series [2] concerns KRAS G12V-dependent Ba/F3 cells. Put plainly: Ba/F3 proliferation assay, KRAS G12V.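 Note: proliferation IC50 in KRAS G12V-dependent Ba/F3 cells read by AlamarBlue.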 Format: cell-based. The conditions noted are these: Mus musculus, BaF3, 72 h, AlamarBlue. In short, it runs like this: (§1)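 IL-3-independent Ba/F3 lines driven by transduced KRAS G12C, G12D or G12V, with puromycin withdrawn about ten days before testing. Viability after compound treatment measured by AlamarBlue fluorescence in duplicate, and values derived by curve fitting.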
A general note: Resazurin is reduced to fluorescent resorufin, in cell work by metabolically active cells.

Series [3] deals with SK-CO-1 cells. Put plainly: SK-CO-1 CTG proliferation assay (120 h) (CRC, G12V). It counts as cell-based. The conditions noted are these: Homo sapiens; SK-CO-1 cells (CRC, G12V), CTG 120 h. In short, it runs like this:
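Compound exposure lasted 120 h in KRAS G12V SK-CO-1 cells seeded overnight at 500 cells/well in 10% FCS EMEM. CellTiter-Glo RLU normalised to DMSO wells gave percent viability, and a four-parameter model fit yielded IC50.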

For series [4], the system named is NCI-H2122 cells. Put plainly: NCI-H2122 CTG proliferation assay (120 h) (NSCLC, G12C). Format: cell-based. The conditions noted are these: Homo sapiens. In short, it runs like this: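 Proliferation was read by CellTiter-Glo luminescence after 120 h of compound exposure, starting one day after seeding 200 NCI-H2122 (G12C) cells per well in RPMI/10% FCS. RLU relative to DMSO wells gave percent viability, and four-parameter nonlinear regression gave IC50.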

For series [5], the system named is KRAS G12C-dependent Ba/F3 cells. Nature of the series: Ba/F3 proliferation assay, KRAS G12C. As to conditions: Mus musculus, BaF3, 72 h, AlamarBlue. It counts as cell-based. In short, it runs like this:
as §1

Each structure is given as a SMILES string.

The text below walks through data of patent publication US20240174690A1, “ANNULATED 2-AMINO-3-CYANO THIOPHENES AND DERIVATIVES FOR THE TREATMENT OF CANCER” (BOEHRINGER INGELHEIM INTERNATIONAL GMBH, priority 2021, published 2024).

Consider `C[C@H](Oc1cc(C2COCCO2)nc(-c2noc3c2CCC[C@@]32CCCc3sc(N)c(C#N)c32)n1)[C@@H]1CCCN1C` (some centres unmarked) [II-95], for which the “HLM QH” value in series [1] is given as 37%. For the same compound, the IC50 in series [2] turned out to be 27 nM; in series [3], 341 nM; in series [4] it was 1420 nM; in series [5], 30 nM.

`C[C@H](Oc1cc(-c2ccn(C)n2)nc(-c2noc3c2CCC[C@@]32CCCc3sc(N)c(C#N)c32)n1)[C@@H]1CCCN1C` [II-96]: the “HLM QH” value in series [1] is under 24%. Further, the IC50 in series [2] was determined as 5 nM; in series [3], 67 nM; in series [4], 307 nM; in series [5] it was 8 nM.

Consider `C[C@H](Oc1cc(-c2cccc(CO)c2)nc(-c2noc3c2CCC[C@@]32CCCc3sc(N)c(C#N)c32)n1)[C@@H]1CCCN1C` [II-97], for which the “HLM QH” value in series [1] is given as under 24%. In addition, the IC50 in series [2] is 26 nM; in series [3] it was 212 nM; in series [4] it was 2020 nM; in series [5], 58 nM.

Consider `C[C@H](Oc1cc(-c2ccn(C3CC3)n2)nc(-c2noc3c2CCC[C@@]32CCCc3sc(N)c(C#N)c32)n1)[C@@H]1CCCN1C` [II-98], for which the “HLM QH” value in series [1] is recorded as under 24%. Further, the IC50 in series [2] turned out to be 14 nM; in series [3], 137 nM; in series [4] it was 1020 nM; in series [5] it was 23 nM.

`C[C@H](Oc1cc(N2CCC(C#N)C2)nc(-c2noc3c2CCC[C@@]32CCCc3sc(N)c(C#N)c32)n1)[C@@H]1CCCN1C` (some centres unmarked) [II-99]: the “HLM QH” value in series [1] was under 24%. In addition, the IC50 in series [2] was found to be 35 nM; in series [3], 159 nM; in series [4], 1160 nM; in series [5], 28 nM.

Take `C[C@H](Oc1cc(-c2cn(C3COC3)nn2)nc(-c2noc3c2CCC[C@@]32CCCc3sc(N)c(C#N)c32)n1)[C@@H]1CCCN1C` [II-100]: in series [1], the “HLM QH” value was 28%. Further, the IC50 in series [2] was 52 nM; in series [3], 257 nM; in series [4] it was 2140 nM; in series [5] it was 19 nM.

For `C[C@H](Oc1cc(-c2ccc(N)nc2)nc(-c2noc3c2CCC[C@@]32CCCc3sc(N)c(C#N)c32)n1)[C@@H]1CCCN1C` [II-101], the “HLM QH” value in series [1] is given as 31%. Moreover, the IC50 in series [2] turned out to be 28 nM; in series [3], 257 nM; in series [4] it was 1520 nM; in series [5] it was 51 nM.

As to `C[C@H](Oc1cc(-n2ccc(C#N)n2)nc(-c2noc3c2CCC[C@@]32CCCc3sc(N)c(C#N)c32)n1)[C@@H]1CCCN1C` [II-102], the “HLM QH” value in series [1] was 51%. The IC50 in series [2] was determined as 4 nM; in series [3], 37 nM; in series [4], 84 nM; in series [5], 4 nM.

Take `Cc1cn(-c2cc(O[C@@H](C)[C@@H]3CCCN3C)nc(-c3noc4c3CCC[C@@]43CCCc4sc(N)c(C#N)c43)n2)nn1` [II-106]: the “HLM QH” value in series [1] is on record as 44%. The IC50 was determined as 23 nM in series [2], 491 nM in series [3], 2860 nM in series [4] and 31 nM in series [5].

Take `CO[C@@H]1C[C@@H]([C@H](C)Oc2cc(-c3ccn(C4COC4)n3)nc(-c3noc4c3CCC[C@@]43CCCc4sc(N)c(C#N)c43)n2)N(C)C1` [II-107]: the “HLM QH” value in series [1] is recorded as 45%. Also, the IC50 in series [2] is 8 nM; in series [3], 181 nM; in series [4], 5720 nM; in series [5] it was 5 nM.

`C[C@H](Oc1cc(-c2ccn(C3COC3)n2)nc(-c2noc3c2CCC[C@@]32CCCc3sc(N)c(C#N)c32)n1)[C@@H]1CCCN1C` [II-109]: the “HLM QH” value in series [1] is listed as under 24%. The IC50 in series [2] was determined as 18 nM; in series [3], 106 nM; in series [4] it was 441 nM; in series [5] it was 13 nM.

As for `C[C@H](Oc1cc(-n2ccc(Br)n2)nc(-c2noc3c2CCC[C@@]32CCCc3sc(N)c(C#N)c32)n1)[C@@H]1CCCN1C` [II-110], the “HLM QH” value in series [1] is recorded as 47%. For the same compound, the IC50 is 13 nM in series [2], 126 nM in series [3], 953 nM in series [4] and 14 nM in series [5].

For the compound `C[C@H](Oc1cc(-c2cnsc2)nc(-c2noc3c2CCC[C@@]32CCCc3sc(N)c(C#N)c32)n1)[C@@H]1CCCN1C` [II-111], the “HLM QH” value in series [1] was under 24%. Besides, the IC50 in series [2] is 4 nM; in series [3] it was 51 nM; in series [4], 858 nM; in series [5], 10 nM.

`C[C@H](O)Cn1ccc(-c2cc(O[C@@H](C)[C@@H]3CCCN3C)nc(-c3noc4c3CCC[C@@]43CCCc4sc(N)c(C#N)c43)n2)n1` [II-112]: the “HLM QH” value in series [1] is given as under 24%. Besides, the IC50 amounted to 6 nM in series [2], 34 nM in series [3], 197 nM in series [4] and 11 nM in series [5].

`C[C@H](Oc1cc(-n2cc(Cn3ccnc3)nn2)nc(-c2noc3c2CCC[C@@]32CCCc3sc(N)c(C#N)c32)n1)[C@@H]1CCCN1C` [II-113]: in series [1], the “HLM QH” value is recorded as 43%. Further, the IC50 is 33 nM in series [2], 64 nM in series [3], 661 nM in series [4] and 25 nM in series [5].

Turning to `COC(=O)c1ccc(-c2cc(O[C@@H](C)[C@@H]3CCCN3C)nc(-c3noc4c3CCC[C@@]43CCCc4sc(N)c(C#N)c43)n2)o1` [II-114], the “HLM QH” value in series [1] is 34%. Besides, the IC50 in series [2] was found to be 7 nM; in series [3], 64 nM; in series [4] it was 680 nM; in series [5] it was 16 nM.

Regarding `C[C@H](Oc1cc(-n2ccncc2=O)nc(-c2noc3c2CCC[C@@]32CCCc3sc(N)c(C#N)c32)n1)[C@@H]1CCCN1C` [II-116], the “HLM QH” value in series [1] is 75%. Besides, the IC50 came out at 8 nM in series [2], 64 nM in series [3], 1120 nM in series [4] and 6 nM in series [5].

For `C[C@H](Oc1cc(-c2ccn(C[C@@H](C)O)n2)nc(-c2noc3c2CCC[C@@]32CCCc3sc(N)c(C#N)c32)n1)[C@@H]1CCCN1C` [II-117], in series [1], the “HLM QH” value is under 24%. Moreover, the IC50 amounted to 6 nM in series [2], 24 nM in series [3], 47 nM in series [4] and 7 nM in series [5].

In the case of `C[C@H](Oc1cc(-n2cc(C3CC3)nn2)nc(-c2noc3c2CCC[C@@]32CCCc3sc(N)c(C#N)c32)n1)[C@@H]1CCCN1C` [II-118], in series [1], the “HLM QH” value is on record as 25%. Moreover, the IC50 in series [2] amounted to 26 nM; in series [3] it was 3860 nM; in series [4], 1010 nM; in series [5], 25 nM.

As for `C[C@H](Oc1cc(-n2ccc(-c3ccccn3)n2)nc(-c2noc3c2CCC[C@@]32CCCc3sc(N)c(C#N)c32)n1)[C@@H]1CCCN1C` [II-119], the “HLM QH” value in series [1] was under 24%. Besides, the IC50 is 6 nM in series [2], 37 nM in series [3], 251 nM in series [4] and 8 nM in series [5].

Regarding `C[C@H](Oc1cc(-n2ccnc2)nc(-c2noc3c2CCC[C@@]32CCCc3sc(N)c(C#N)c32)n1)[C@@H]1C[C@@H](F)CN1C` [II-120], the “HLM QH” value in series [1] is given as 47%. The IC50 in series [2] was found to be 13 nM; in series [3], 126 nM; in series [4], 1090 nM; in series [5], 27 nM.

In the case of `COCc1cn(-c2cc(O[C@@H](C)[C@@H]3CCCN3C)nc(-c3noc4c3CCC[C@@]43CCCc4sc(N)c(C#N)c43)n2)nn1` [II-121], the “HLM QH” value in series [1] is given as 39%. For the same compound, the IC50 was determined as 11 nM in series [2], 57 nM in series [3], 580 nM in series [4] and 13 nM in series [5].

On to `CNC(=O)c1cn(-c2cc(O[C@@H](C)[C@@H]3CCCN3C)nc(-c3noc4c3CCC[C@@]43CCCc4sc(N)c(C#N)c43)n2)nn1` [II-122], for which the “HLM QH” value in series [1] is listed as 35%. Further, the IC50 in series [2] was 10 nM; in series [3], 52 nM; in series [4], 961 nM; in series [5], 21 nM.

As to `C[C@H](Oc1cc(-n2cc(-c3cccnc3)nn2)nc(-c2noc3c2CCC[C@@]32CCCc3sc(N)c(C#N)c32)n1)[C@@H]1CCCN1C` [II-123], the “HLM QH” value in series [1] was 28%. The IC50 in series [2] came to 24 nM; in series [3] it was 96 nM; in series [4] it was 878 nM; in series [5] it was 15 nM.

Consider `C[C@H](Oc1cc(-n2cc(Cn3cncn3)nn2)nc(-c2noc3c2CCC[C@@]32CCCc3sc(N)c(C#N)c32)n1)[C@@H]1CCCN1C` [II-124], for which the “HLM QH” value in series [1] is reported as 37%. Besides, the IC50 was 12 nM in series [2], 38 nM in series [3], 901 nM in series [4] and 9 nM in series [5].

What is called IC50 is the midpoint of a concentration-inhibition curve. Read a low IC50 as higher potency.
